Data published in ChEMBL document CHEMBL5506041, “Identification of 1,3,4-Thiadiazolyl-Containing Thiazolidine-2,4-dione Derivatives as Novel PTP1B Inhibitors with Antidiabetic Activity” (J Med Chem, 2024).
Active and inactive are the calls of the source. No cut-off for these calls is given here.

Tests used:
[1] = biological target: T1, Tyrosine-protein phosphatase non-receptor type 1 (Homo sapiens, UniProt P18031); experiment: Inhibition of PTP1B (unknown origin) using DiFMUP as substrate incubated for 10 mins by fluorescence based analysis
T1 sequence (P18031 whole entry): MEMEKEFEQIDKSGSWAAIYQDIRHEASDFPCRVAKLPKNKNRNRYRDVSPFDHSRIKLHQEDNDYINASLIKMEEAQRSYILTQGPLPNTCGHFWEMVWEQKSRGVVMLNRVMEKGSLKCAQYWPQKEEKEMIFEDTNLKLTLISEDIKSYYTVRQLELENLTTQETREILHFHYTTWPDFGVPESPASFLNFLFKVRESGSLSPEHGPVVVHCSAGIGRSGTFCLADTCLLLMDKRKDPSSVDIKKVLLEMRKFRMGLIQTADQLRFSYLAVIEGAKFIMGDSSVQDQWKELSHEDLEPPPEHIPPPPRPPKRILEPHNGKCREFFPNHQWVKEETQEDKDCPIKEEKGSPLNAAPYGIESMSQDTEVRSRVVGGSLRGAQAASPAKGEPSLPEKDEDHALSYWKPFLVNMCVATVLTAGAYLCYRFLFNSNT

[2] = biological target: T2, Tyrosine-protein phosphatase non-receptor type 1 (Homo sapiens) (UniProt P18031); experiment: Noncompetitive inhibition of PTP1B1 (unknown origin) upto 1 uM by Lineweaver-burk plot analysis
T2 sequence (whole entry): T1 sequence (P18031 whole entry)

HepG2 [3] = experiment: Inhibition of insulin resistance in palmitic acid-induced human HepG2 cells assessed as upregulation of IRS1 expression incubated for 24 hrs followed by insulin addition for 10 mins; assay type: functional, cell-based; conditions: dose 2-20 µM
[4] = biological target: T2, Tyrosine-protein phosphatase non-receptor type 1 (Homo sapiens); experiment: Reversible inhibition of PTP1B1 (unknown origin) upto 1 uM by Lineweaver-burk plot analysis
Mus musculus [5] = experiment: Anti-diabetic activity in streptozotocin-induced C57/6J mouse model assessed as reduction in triglyceride level in serum at 25 to 50 mg/kg, ip administered for 4 weeks; assay type: functional, organism-based; conditions: dose 25-50 mg/kg
Mus musculus [6] = experiment: Anti-diabetic activity in streptozotocin-induced C57/6J mouse model assessed as reduction in fasted blood glucose level at 50 mg/kg, ip preadministered with compound for 3 weeks followed by fasting for 12 hrs and measured after 120 mins post glucose administration by OGTT analysis; assay type: functional, organism-based; conditions: time 518.0 hrs
L02 = experiment: Cytotoxicity activity against human L02 cells upto 32 uM by MTT assay; assay type: toxicity, cell-based; conditions: l02, 32 µM
Mus musculus [7] = experiment: Hypoglycemic activity in streptozotocin-induced C57/6J mouse model assessed as reduction in fasting blood glucose level at 25 to 50 mg/kg, ip administered once a week and fasted for 12 hrs; assay type: functional, organism-based; conditions: dose 25-50 mg/kg
[8] = biological target: T2, Tyrosine-protein phosphatase non-receptor type 1 (Homo sapiens); experiment: Potency index, ratio of lithocholic acid IC50 to test compound IC50 for inhibition of PTP1B (unknown origin) using DiFMUP as substrate incubated for 10 mins by fluorescence based analysis
HepG2 [9] = experiment: Inhibition of insulin resistance in palmitic acid-induced human HepG2 cells assessed as upregulation of AKT expression incubated for 24 hrs followed by insulin addition for 10 mins; assay type: functional, cell-based; conditions: dose 2-20 µM
Mus musculus [10] = experiment: Anti-diabetic activity in streptozotocin-induced C57/6J mouse model assessed as reduction in total cholesterol level in serum at 25 to 50 mg/kg, ip administered for 4 weeks; assay type: functional, organism-based; conditions: dose 25-50 mg/kg
HEK293 = experiment: Cytotoxicity activity against HEK293 cells upto 32 uM by MTT assay; assay type: toxicity, cell-based; conditions: human, hek293, 32 µM
Mus musculus [11] = experiment: Hypoglycemic activity in streptozotocin-induced C57/6J mouse model assessed as reduction in fasting blood glucose level at 50 mg/kg, ip administered once a week and fasted for 12 hrs; assay type: functional, organism-based

IC50 [1] [nM]	SMILES	also measured
1840	O=C1NC(=O)/C(=C\c2ccc(C(=O)Nc3nnc(SCc4ccc(F)cc4)s3)cc2)S1	
1480	O=C1NC(=O)/C(=C\c2ccc(C(=O)Nc3nnc(SCc4cccc(OC(F)(F)F)c4)s3)cc2)S1	
1850	O=C1NC(=O)/C(=C\c2ccc(C(=O)Nc3nnc(SCc4ccccc4F)s3)cc2)S1	
1210	COC(=O)c1ccccc1CSc1nnc(NC(=O)c2ccc(/C=C3/SC(=O)NC3=O)cc2)s1	
1270	O=C1NC(=O)/C(=C\c2ccc(C(=O)Nc3nnc(SCc4ccccc4)s3)cc2)S1	
1410	CS(=O)(=O)c1ccc(CSc2nnc(NC(=O)c3ccc(/C=C4\SC(=O)NC4=O)cc3)s2)cc1	
1470	O=C1NC(=O)/C(=C/c2ccc(C(=O)Nc3nnc(SCc4ccc(-c5ccccc5)cc4)s3)cc2)S1	
3850	Cc1cccc(CSc2nnc(NC(=O)c3ccc(/C=C4/SC(=O)NC4=O)cc3)s2)c1	
1390	O=C1NC(=O)/C(=C\c2ccc(C(=O)Nc3nnc(SCc4ccc(Cl)cc4)s3)cc2)S1	
890	O=C1NC(=O)/C(=C\c2ccc(C(=O)Nc3nnc(SCc4cccc(Br)c4)s3)cc2)S1	
2080	O=C1NC(=O)/C(=C\c2ccc(C(=O)Nc3nnc(SCc4cccc(F)c4)s3)cc2)S1	
750	O=C1NC(=O)/C(=C/c2ccc(C(=O)Nc3nnc(SCc4ccc(F)c(F)c4)s3)cc2)S1	
3760	O=C1NC(=O)/C(=C\c2ccc(C(=O)Nc3nnc(SCc4cccc([N+](=O)[O-])c4)s3)cc2)S1	
890	O=C1NC(=O)/C(=C\c2ccc(C(=O)Nc3nnc(SCc4ccc(OC(F)(F)F)cc4)s3)cc2)S1	
1180	O=C1NC(=O)/C(=C\c2ccc(C(=O)Nc3nnc(SCc4ccccc4C(F)(F)F)s3)cc2)S1	
2170	N#Cc1ccccc1CSc1nnc(NC(=O)c2ccc(/C=C3/SC(=O)NC3=O)cc2)s1	
1240	O=C1NC(=O)/C(=C/c2ccc(C(=O)Nc3nnc(SCc4ccc(F)cc4F)s3)cc2)S1	
1870	O=C1NC(=O)/C(=C\c2ccc(C(=O)Nc3nnc(SCc4ccccc4Br)s3)cc2)S1	
1070	O=C1NC(=O)/C(=C/c2ccc(C(=O)Nc3nnc(SCc4ccc(F)cc4Cl)s3)cc2)S1	
3560	O=C1NC(=O)/C(=C\c2ccc(C(=O)Nc3nnc(SCc4ccccc4-c4ccccc4)s3)cc2)S1	
590	O=C1NC(=O)/C(=C\c2ccc(C(=O)Nc3nnc(SCc4ccc(Br)cc4)s3)cc2)S1	

IC50 [1] [nM]	SMILES	also measured
4680	Cc1ccccc1CSc1nnc(NC(=O)c2ccc(/C=C3/SC(=O)NC3=O)cc2)s1	
1640	O=C1NC(=O)/C(=C\c2ccc(C(=O)Nc3nnc(SCc4cccc(Cl)c4)s3)cc2)S1	
1320	O=C1NC(=O)/C(=C\c2ccc(C(=O)Nc3nnc(SCc4ccccc4OC(F)(F)F)s3)cc2)S1	
880	Cc1ccc(CSc2nnc(NC(=O)c3ccc(/C=C4/SC(=O)NC4=O)cc3)s2)cc1	
3220	COc1cccc(CSc2nnc(NC(=O)c3ccc(/C=C4/SC(=O)NC4=O)cc3)s2)c1	
1350	CC(C)(C)c1ccc(CSc2nnc(NC(=O)c3ccc(/C=C4\SC(=O)NC4=O)cc3)s2)cc1	
410	N#Cc1ccc(CSc2nnc(NC(=O)c3ccc(/C=C4/SC(=O)NC4=O)cc3)s2)cc1	inhibition [2]: Active; inhibition (HepG2 [3]): Dose-Dependent Effect; inhibition [4]: Active; Activity (Mus musculus [5]): Active; Activity (Mus musculus [6]): Active; Activity (L02): Non-Toxic; Activity (Mus musculus [7]): Active; Ratio IC50 [8]: 23.5; inhibition (HepG2 [9]): Dose-Dependent Effect; Activity (Mus musculus [10]): Active; Activity (HEK293): Non-Toxic
	C[C@H]1O[C@H](O[C@H]2[C@H](O)[C@@H](O)[C@@H](O[C@H]3[C@H](O)[C@@H](O)C(O)O[C@@H]3CO)O[C@@H]2CO)[C@H](O)[C@@H](O)[C@@H]1N[C@H]1C=C(CO)[C@@H](O)[C@H](O)[C@H]1O (some centres undefined)	Activity (Mus musculus [11]): Active
1120	COC(=O)c1cccc(CSc2nnc(NC(=O)c3ccc(/C=C4/SC(=O)NC4=O)cc3)s2)c1	
910	O=C1NC(=O)/C(=C/c2ccc(C(=O)Nc3nnc(SCc4ccc(C(F)(F)F)cc4)s3)cc2)S1	
3770	O=C1NC(=O)/C(=C/c2ccc(C(=O)Nc3nnc(SCc4ccc5ccccc5c4)s3)cc2)S1	
610	N#Cc1cccc(CSc2nnc(NC(=O)c3ccc(/C=C4/SC(=O)NC4=O)cc3)s2)c1	
1730	O=C1NC(=O)/C(=C/c2ccc(C(=O)Nc3nnc(SCc4cc(C(F)(F)F)cc(C(F)(F)F)c4)s3)cc2)S1	
1820	O=C1NC(=O)/C(=C\c2ccc(C(=O)Nc3nnc(SCc4ccc([N+](=O)[O-])cc4)s3)cc2)S1	
1070	O=C1NC(=O)/C(=C\c2ccc(C(=O)Nc3nnc(SCc4cccc(C(F)(F)F)c4)s3)cc2)S1	
2910	O=C1NC(=O)/C(=C\c2ccc(C(=O)Nc3nnc(SCc4ccccc4Cl)s3)cc2)S1	
650	COC(=O)c1ccc(CSc2nnc(NC(=O)c3ccc(/C=C4/SC(=O)NC4=O)cc3)s2)cc1	
1130	O=C1NC(=O)/C(=C/c2ccc(C(=O)Nc3nnc(SCc4ccc(F)c(F)c4F)s3)cc2)S1	
820	O=C1NC(=O)/C(=C/c2ccc(C(=O)Nc3nnc(SCc4ccc(F)c(Cl)c4)s3)cc2)S1	
980	O=C1NC(=O)/C(=C/c2ccc(C(=O)Nc3nnc(SCc4ccc5ncccc5c4)s3)cc2)S1	
4090	O=C1NC(=O)/C(=C\c2ccc(C(=O)Nc3nnc(SCc4ccccc4[N+](=O)[O-])s3)cc2)S1	

SMILES	IC50 [1] [nM]	also measured
C[C@H](CCC(=O)O)[C@H]1CC[C@H]2[C@@H]3CC[C@@H]4C[C@H](O)CC[C@]4(C)[C@H]3CC[C@]12C [LITHOCHOLIC ACID]	9620	
